Earlier results in US20090169619A1, “CARBAMAZEPINE EXTENDED RELEASE DOSAGE FORM” (CorePharma LLC, priority 2005, published 2009).

solubility in water: poor solubility
SMILES: NC(=O)N1c2ccccc2C=Cc2ccccc21 [Carbamazepine, 5H-Dibenz[b,f]azepine-5-carboxamide]
